Measurements reported in patent publication US20050112260A1, “Monatin tabletop sweetener compositions and methods of making same” (Cargill, Inc., priority 2003, published 2005).

Key:
[1] = Stability of monatin at pH 3 with increasing temperatures; type: physicochemical
Method: A sample of synthetic monatin was subjected to pH 3 at temperatures of 25° C., 50° C. and 100° C. At room temperature and pH 3, a 14% loss in monatin was observed over a period of 48 hours. This loss was attributed to lactone formation. At 50° C. and pH 3, a 23% loss in monatin was observed over a period of 48 hours. This loss was attributed to lactone formation and the buildup of an unknown compound after about 15.5 minutes. […] The major detectable component was an unknown at 15.5 minutes.

[2] = Sensory stability of monatin and aspartame at pH 2.5, 3.0, 4.0 at 40° C. (sweetness vs sucrose standards, panel n=8); type: physicochemical; details: for Rate constant (k; day^−1) of sweetness loss: pseudo-first order assumed
Method: The sensory stability of monatin solutions prepared at pH 2.5, 3.0 and 4.0 and stored at 40° C. was monitored for 100 days. Loss of sweetness from these solutions was compared with the losses of sweetness from aspartame solutions prepared and stored under identical conditions.
The sensory stability of monatin (8% SEV, ˜55 ppm, synthetic blend containing approximately 96% of the 2R,4R/2S, 4S enantiometric pair and 4% of the 2R,4S/2S,4R enantiometric pair) in phosphate/citrate buffers having a pH of 2.5, 3.0, and 4.0 was examined after storage at 40° C. The stability of monatin was compared to that of aspartame (400 ppm) in the same buffers. Three sucrose reference solutions were prepared in the same phosphate/citrate buffers as the monatin and aspartame solutions. All prepared solutions were stored in the dark.
• pH2.5 Phosphoric acid (75% solution) 0.127% (w/v) • Tri-sodium citrate monohydrate 0.005% (w/v) • pH3.0 Phosphoric acid (75% solution) 0.092% (w/v) • Tri-sodium citrate monohydrate 0.031% (w/v) • pH4.0 Phosphoric acid (75% solution) 0.071% (w/v) • Tri-sodium citrate monohydrate 0.047% (w/v)
The sweetness of each sweetener relative to sucrose was assessed in duplicate by a small panel (n=8) of trained sensory evaluators experienced in the sweetness estimation procedure. All samples (in the same buffers) were served in duplicate at a temperature of 22° C.±1° C. Monatin (test) solutions, coded with 3 digit random number codes were presented individually to panelists, in random order. Sucrose reference standards, ranging from 4.0-10.0% (w/v) sucrose, increasing in steps of 0.5% (w/v) sucrose were also provided. Panelists were asked to estimate sweetness by comparing the sweetness of the test solution to the sucrose standards. This was carried out by taking 3 sips of the test solution, followed by a sip of water, followed by 3 sips of sucrose standard followed by a sip of water, etc. Panelists were encouraged to estimate the sweetness to one decimal place, e.g., 6.8, 8.5. A five minute rest period was imposed between evaluating the test solutions. Panelists were also asked to rinse well and eat a cracker to reduce any potential carry over effects.
If a pseudo-first order breakdown reaction is assumed, a plot of logn percentage retention versus time (logn% RTN v. t) allows estimation of the half-life (t½) and rate constant (k) of sweetness loss under any given set of conditions. In so doing, the kinetics of monatin and aspartame sweetness loss may be summarized as follows in Table 13.

[3] = Stability of monatin at high temperature (80° C.) and neutral pH, LC-MS; type: physicochemical; details: pH 7, 75 ppm, after 7-35 days
Method: A 100 milliliter solution of 75 ppm monatin at pH 7 was used as a stock solution. The synthetic monatin sample contained approximately 96% of the 2R,4R/2S,4S enantiomeric pair and 4% of the 2R,4S/2S,4R enantiomeric pair. Samples were incubated at 80° C. and pH 7 for the duration of the experiment and samples were withdrawn at 0, 1, 2, 3, 4 hours and 1, 2, 4, 7, 14, 21 and 35 days. All experimental conditions were run in duplicate.
Separation and Quantification Using LC-MS using Reverse Phase Chromatography A response curve was established for both detected diastereomer peaks of the synthetic monatin. A range of 5-150 ppm was bracketed with the synthetic monatin standard dissolved in DI water. Separation of the two diastereomer peaks was accomplished using a 3.9×1 50 mm Novapak C18 (Waters Corporation) HPLC column. Ultraviolet-Visible (UV) and Mass Spectrometer (MS) detectors were used in series for detection and quantitation. Monatin and its lactone peak each have a UVmax at 279 nm that aided in precise detection. Quantification was done by acquiring Selected Ion Monitoring (SIM) scan of 293.3 m/z and 275.3 m/z in positive-ion electrospray mode.

[4] = Quantitative sweetness synergy of monatin in blends with other sweeteners; type: in vivo
[5] = pH 2.5, 40° C., day 1, monatin ~55 ppm
[6] = pH 2.5, 40° C., day 2, monatin ~55 ppm
[7] = pH 2.5, 40° C., day 3, monatin ~55 ppm
[8] = pH 2.5, 40° C., day 4, monatin ~55 ppm
[9] = pH 2.5, 40° C., day 7, monatin ~55 ppm
[10] = pH 2.5, 40° C., day 8, monatin ~55 ppm
[11] = pH 2.5, 40° C., day 9, monatin ~55 ppm
[12] = pH 2.5, 40° C., day 11, monatin ~55 ppm
[13] = pH 2.5, 40° C., day 50, monatin ~55 ppm
[14] = pH 2.5, 40° C., day 100, monatin ~55 ppm
[15] = pH 3.0, 40° C., day 1, monatin ~55 ppm
[16] = pH 3.0, 40° C., day 2, monatin ~55 ppm
[17] = pH 3.0, 40° C., day 3, monatin ~55 ppm
[18] = pH 3.0, 40° C., day 4, monatin ~55 ppm
[19] = pH 3.0, 40° C., day 7, monatin ~55 ppm
[20] = pH 3.0, 40° C., day 8, monatin ~55 ppm
[21] = pH 3.0, 40° C., day 9, monatin ~55 ppm
[22] = pH 3.0, 40° C., day 11, monatin ~55 ppm
[23] = pH 3.0, 40° C., day 50, monatin ~55 ppm
[24] = pH 3.0, 40° C., day 100, monatin ~55 ppm
[25] = pH 4.0, 40° C., day 3, monatin ~55 ppm
[26] = pH 4.0, 40° C., day 8, monatin ~55 ppm
[27] = pH 4.0, 40° C., day 11, monatin ~55 ppm
[28] = pH 4.0, 40° C., day 17, monatin ~55 ppm
[29] = pH 4.0, 40° C., day 24, monatin ~55 ppm
[30] = pH 4.0, 40° C., day 50, monatin ~55 ppm
[31] = pH 4.0, 40° C., day 100, monatin ~55 ppm

In the case of `NC(CC(O)(Cc1c[nH]c2ccccc12)C(=O)O)C(=O)O` (stereo not drawn) [Monatin, 2-hydroxy-2-(indol-3-ylmethyl)-4-aminoglutaric acid], the loss in monatin ([1]; 50° C., pH 3, 48 hours) is reported as 23%, the loss in monatin ([1]; 100° C., pH 3, 24 hours) is reported as “nearly all monatin was lost” and the loss in monatin ([1]; room temperature (25° C.), pH 3, 48 hours) is reported as 14%. The “SEV Monatin (% sucrose)” value ([2]; pH 2.5, 40° C., day 0, monatin ~55 ppm) was 7.35 % sucrose, the “Retention of Monatin Sweetness (%)” value [2, 5] was 93.3% and the “SEV Monatin (% sucrose)” value [2, 5] was 6.86 % sucrose. For the same compound, the “Retention of Monatin Sweetness (%)” value [2, 6] was 91.2%, the “SEV Monatin (% sucrose)” value [2, 6] was 6.70 % sucrose and the “Retention of Monatin Sweetness (%)” value [2, 7] was 88.4%. The “SEV Monatin (% sucrose)” value [2, 7] was 6.50 % sucrose, the “Retention of Monatin Sweetness (%)” value [2, 8] was 85.2% and the “SEV Monatin (% sucrose)” value [2, 8] was 6.26 % sucrose. For the same compound, the “Retention of Monatin Sweetness (%)” value [2, 9] was 82.7%, the “SEV Monatin (% sucrose)” value [2, 9] was 6.08 % sucrose and the “Retention of Monatin Sweetness (%)” value [2, 10] was 81.4%. The “SEV Monatin (% sucrose)” value [2, 10] was 5.98 % sucrose, the “Retention of Monatin Sweetness (%)” value [2, 11] was 80.1% and the “SEV Monatin (% sucrose)” value [2, 11] was 5.89 % sucrose. For the same compound, the “Retention of Monatin Sweetness (%)” value [2, 12] was 78.6%, the “SEV Monatin (% sucrose)” value [2, 12] was 5.78 % sucrose and the “Retention of Monatin Sweetness (%)” value [2, 13] was 62.7%. For the same compound, the “SEV Monatin (% sucrose)” value [2, 13] was 4.61 % sucrose, the “Retention of Monatin Sweetness (%)” value [2, 14] was 28.6% and the “SEV Monatin (% sucrose)” value [2, 14] was 2.10 % sucrose. For the same compound, the “Rate constant (k; day^−1) of sweetness loss” value ([2]; pH 2.5, 40° C.) was 0.011 day⁻¹, the “Sweetness Retained (%)” value ([2]; pH 2.5, 100 days storage at 40° C.) was 29% and the “SEV Monatin (% sucrose)” value ([2]; pH 3.0, 40° C., day 0, monatin ~55 ppm) was 7.08 % sucrose. The “Retention of Monatin Sweetness (%)” value [2, 15] was 99.6%, the “SEV Monatin (% sucrose)” value [2, 15] was 7.05 % sucrose and the “Retention of Monatin Sweetness (%)” value [2, 16] was 93.2%. For the same compound, the “SEV Monatin (% sucrose)” value [2, 16] was 6.60 % sucrose, the “Retention of Monatin Sweetness (%)” value [2, 17] was 91.4% and the “SEV Monatin (% sucrose)” value [2, 17] was 6.47 % sucrose. For the same compound, the “Retention of Monatin Sweetness (%)” value [2, 18] was 91.6%, the “SEV Monatin (% sucrose)” value [2, 18] was 6.49 % sucrose and the “Retention of Monatin Sweetness (%)” value [2, 19] was 85.3%. The “SEV Monatin (% sucrose)” value [2, 19] was 6.04 % sucrose, the “Retention of Monatin Sweetness (%)” value [2, 20] was 83.8% and the “SEV Monatin (% sucrose)” value [2, 20] was 5.93 % sucrose. The “Retention of Monatin Sweetness (%)” value [2, 21] was 83.1%, the “SEV Monatin (% sucrose)” value [2, 21] was 5.88 % sucrose and the “Retention of Monatin Sweetness (%)” value [2, 22] was 83.1%. For the same compound, the “SEV Monatin (% sucrose)” value [2, 22] was 5.88 % sucrose, the “Retention of Monatin Sweetness (%)” value [2, 23] was 72.3% and the “SEV Monatin (% sucrose)” value [2, 23] was 5.12 % sucrose. For the same compound, the “Retention of Monatin Sweetness (%)” value [2, 24] was 57.9%, the “SEV Monatin (% sucrose)” value [2, 24] was 4.10 % sucrose and the “Rate constant (k; day^−1) of sweetness loss” value ([2]; pH 3.0, 40° C.) was 0.006 day⁻¹. For the same compound, the “Sweetness Retained (%)” value ([2]; pH 3.0, 100 days storage at 40° C.) was 58%, the “SEV Monatin (% sucrose)” value ([2]; pH 4.0, 40° C., day 0, monatin ~55 ppm) was 7.40 % sucrose and the “Retention of Monatin Sweetness (%)” value [2, 25] was 95.7%. The “SEV Monatin (% sucrose)” value [2, 25] was 7.08 % sucrose, the “Retention of Monatin Sweetness (%)” value [2, 26] was 86.8% and the “SEV Monatin (% sucrose)” value [2, 26] was 6.42 % sucrose. The “Retention of Monatin Sweetness (%)” value [2, 27] was 85.9%, the “SEV Monatin (% sucrose)” value [2, 27] was 6.36 % sucrose and the “Retention of Monatin Sweetness (%)” value [2, 28] was 82.4%. For the same compound, the “SEV Monatin (% sucrose)” value [2, 28] was 6.10 % sucrose, the “Retention of Monatin Sweetness (%)” value [2, 29] was 84.5% and the “SEV Monatin (% sucrose)” value [2, 29] was 6.25 % sucrose. The “Retention of Monatin Sweetness (%)” value [2, 30] was 82.9%, the “SEV Monatin (% sucrose)” value [2, 30] was 6.14 % sucrose and the “Retention of Monatin Sweetness (%)” value [2, 31] was 78.4%. The “SEV Monatin (% sucrose)” value [2, 31] was 5.80 % sucrose, the “Rate constant (k; day^−1) of sweetness loss” value ([2]; pH 4.0, 40° C.) was 0.003 day⁻¹ and the “Sweetness Retained (%)” value ([2]; pH 4.0, 100 days storage at 40° C.) was 78%. For the same compound, the “degree of degradation of monatin” value [3] was “insignificant”, the “quantitative synergy with cyclamates” value ([4]; blend with cyclamates) was “quantitatively synergistic” and the “quantitative synergy with other sweeteners” value ([4]; with aspartame, saccharin, acesulfame-K, sucralose, or carbohydrate sweeteners) was “no significant quantitative synergy”.
